Results reported in US20150320783A1, “N-METHY[…] RELATED SUBSTANCES FOR USE IN TREATING / LESSENING THE OCCURRENCE OF HOT FLASHES RELATED TO MENOPAUSE” (DSM IP ASSETS B.V., priority 2013, published 2015).
“Also recorded” adds a separate entry of the source.

How the values were obtained:
Type in all cases: in vivo, rat
[1] = test system: ovariectomized female rats; assay: CGRP-induced hot flash response (skin temperature) in ovariectomized rats
Description: (§1) The animals arrived at approximately 60 days of age, and were placed on specific diets throughout the study (to approximately 160 days of age). The diets were formulated and provided by Dyets Inc. (Bethlehem, Pa.) and are based on a modified AIN-93G diet. These diets were fed ad libitum. Two weeks after arrival, at approximately […] of age, the animals were ovariectomized, allowed to recover for three weeks, and then placed on defined diets. In the first study, these diets contained 0, 0.08, 0.48, 3.2, 18.5, 185, or 3700 μg/kg/day of NMS dihydrochloride (FIG. 2). In the second, follow-up study, the diets contained no NMS (control), NMS oxalate (18.5 or 55.5 μg/kg/d), or milled Zanthoxylum seed in quantities that supplied NMS-glucoside at equivalent doses (18.5 or 55.5 μg/kg/d; FIG. 8). The NMS and NMS-glucoside content was verified using liquid chromatography with mass spectrometric etection. Extraction methods were similar to those of Yanase et al., 2010.
(§2) All diets were fed for 2 weeks prior to the first behavioral assessment (open field). Positive control animals received a 5.0 mm subcutaneous silastic capsule implant packed with a crystalline 17β-estradiol and cholesterol mixture (25%, 0.058 inch inner diameter, 0.077 inch outer diameter; Dow Corning #508-006). Animals were then examined for locomotor activity (open field) and in two behavioral assays to assess mood (elevated plus maze and swim test) separated by two weeks in-between each assay. Two weeks after the final behavioral task (swim test), the animals were anesthetized and their physiological response to an experimentally-induced hot flash was tested. After the temperature monitoring was complete, tissue was harvested while the animals were still anesthetized.
Two weeks after arrival, each animal was anesthetized via isoflurane inhalation and the dorsal mid-lumbar area was shaved and swabbed with surgical scrub, iodine and alcohol. The animal was then placed on a warm heat pad covered by a sterile cloth/pad in ventral recumbency with tail towards surgeon. A 2-3 cm dorsal midline skin incision was made halfway between the caudal edge of the ribcage and the base of the tail. A single transverse incision of 5.5-10 mm long was made into the muscle wall on both the right and left sides approximately ⅓ of the distance between the spinal cord and the ventral midline. The ovary and the oviduct were exteriorized through the muscle wall. A hemostat was clamped around the uterine vasculature between the oviduct and uterus and the uterine vasculature was ligated with dissolvable suture. Each ovary and part of the oviduct was removed with single cuts through the oviducts near the ovary. The hemostat was removed, and the remaining tissue replaced into the peritoneal cavity. The ovary on the other side was removed in a similar manner. The muscle incision is not sutured. Sterile wound clips were used to close the skin incision. Animals were monitored daily for signs of infection or morbidity.
Animals were anesthetized with intraperitoneal co-injection of urethane (750 mg/kg) and α-chloralose (60 mg/kg). […] Thermistor probes (ADI Instruments, Colorado Springs, Colo.) were taped to the plantar surfaces of one hind foot. Forty minutes later, after anesthesia-induced hypothermia had stabilized, the basal skin temperature was recorded. Temperature monitoring then occurred at 5-second intervals throughout the remainder of the experiment. Calcitonin gene related peptide (CGRP; 10 μg/kg, i.v.) dissolved in saline was then injected via the tail vein. A maximum of eight animals were tested at the same time due to limitations on instrumental throughput. Cage mates were always tested together in order to avoid the stresses of single-housing and the potential stress hormone effects on body temperature. Therefore only four groups could be tested within any one given day.

plasma estradiol = assay: Circulating (plasma) estradiol levels in ovariectomized female rats; conditions: for plasma estradiol: first study, FIG. 5, dietary NMS supplementation, estradiol supplemented animals
Description: as §1, §2

[2] = Body weight of ovariectomized female rats; conditions: for body weight: FIG. 6A, dietary NMS vs control diet, estradiol implanted, throughout the experiment
Description: as §1, §2

[3] = test system: ovariectomized female rats; assay: Uterine weight (uterotrophic effect) in ovariectomized female rats; conditions: vs ovariectomized controls; for uterine weight: first study, FIG. 6D, after 80 days of supplementation; for uterine weight / uterine growth: follow-up study, FIG. 11A
Description: as §1, §2

[4] = test system: ovariectomized female rats; assay: Forced swim test (depressive-like behaviors); conditions: first study, FIG. 7A; estradiol implanted
Method: Each rat was examined in the swim test for depressive-like behaviors. The test was performed over two consecutive days since it is a measure of an adaptive response to a perceived inescapable situation. The first test establishes to the animal that it is an inescapable situation, and the second test measures the animal's degree of passive coping derived from an unwillingness to maintain effort in an inescapable situation. Typical antidepressants limit the amount of passive coping (immobility) and promote the amount of active coping (swimming/climbing). On day one (0800 h to 1300 h), animals were acclimated to the test by placing them in a plexiglass cylindrical container (45 cm×20 cm) filled with 30 cm of fresh water (25° C.) for fifteen minutes, after which they were toweled dried and returned to their home cage. On day two (24 hrs later) the test was performed for a total swim time of five minutes, after which the rats were toweled dried and returned to their home cage. Both trials were recorded by a digital video camera was secured to the ceiling above the cylinders and connected to a laptop. Total time spent swimming and immobile was measured real-time by behavioral software (Anymaze, Stoelting Co.), and scored post hoc by a blinded experimenter from captured video. […]

[5] = test system: ovariectomized female rats; assay: Behavioral measures of mood (open field, elevated plus maze, swim test)
Description: as §2, with “After the temperature monitoring was complete, tissue was harvested while the animals were still anesthetized.” left out
Animals were tested in the open field to measure overall locomotor activity and basal anxiety state. […] Rats were placed in the middle of the chamber and behavior in the open field was recorded for thirty minutes with a digital camera and measured by software (AnyMaze, Stoelting Co., Inc.). The following parameters were analyzed: a) total distance traveled; b) time in center; c) center entries; and d) number of fecal boli excreted.
Animals were tested on the elevated plus maze to measure anxiety-related behavior. […] Each rat was placed in the central platform facing one of the open arms, and its behavior was recorded during a 5-min testing period with video capture software (AnyMaze). […]

[6] = first study, dietary NMS, dose not stated, estradiol subcutaneous, no dietary NMS (positive control)
[7] = first study, dietary NMS, dose not stated, estradiol subcutaneous, no dietary NMS (positive control), CGRP 10 μg/kg i.v.
[8] = follow-up study, FIG. 9, milled Zanthoxylum seed supplying NMS-glucoside 18.5 or 55.5 μg/kg/d, NMS oxalate 18.5 or 55.5 μg/kg/d, or estradiol, vs untreated controls
[9] = first study, representative data FIG. 3, 0.48 ug/kg/d NMS through diet vs untreated controls

| SMILES | basal (baseline) skin temperature [1, 6] | CGRP-induced hot flash response [1, 7] | CGRP-induced hot flash response [1, 8] | plasma estradiol (plasma estradiol) | body weight ([2]; first study) | body weight throughout the experiment ([2]; follow-up study, FIG. 11B, estradiol implanted vs all other groups) | uterine weight [3] | uterine weight / uterine growth [3] | time immobile during the second session of the forced swim test [4] | basal skin temperature ([1]; first study, FIG. 3 and 4, 18.5 ug/kg/d NMS through diet vs untreated controls) | CGRP response above calculated baseline (skin temperature) [1, 9] | basal skin temperature [1, 9] | CGRP response above calculated baseline (skin temperature) ([1]; first study, representative data FIG. 3, 18.5 ug/kg/d NMS through diet vs untreated controls) | non-uterine estradiol secretion (plasma estradiol; results summary) | weight change as a percentage of original weight ([2]; first study, FIG. 6B and C, throughout or at the end of the study) | behavioral measures of mood ([5]; first study, FIG. 7, dietary NMS) | behavioral measures of mood / mood-related behaviors ([5]; follow-up study, FIG. 10) |
| --- | --- | --- | --- | --- | --- | --- | --- | --- | --- | --- | --- | --- | --- | --- | --- | --- | --- |
| C[C@]12CC[C@@H]3c4ccc(O)cc4CC[C@H]3[C@@H]1CC[C@@H]2O [estradiol, 17β-estradiol, reference compound] | lowest basal temperatures | lowest responses to CGRP | blunted the CGRP-induced hot flash response | highest levels of plasma estradiol | significantly lower body weight | significantly lower body weight | significantly higher uterine weights | significantly higher uterine weights | spent less time immobile | – | – | – | – | – | – | – | – |
| CNCCc1c[nH]c2ccc(O[C@@H]3O[C@H](CO)[C@@H](O)[C@H](O)[C@H]3O)cc12 [NMS-glucoside, N-methylserotonin 5-O-β-glucoside] | – | – | blunted the CGRP-induced hot flash response | – | – | – | – | – | – | – | – | – | – | – | – | – | – |
| CNCCc1c[nH]c2ccc(O)cc12 [NMS, N-methylserotonin] | reduced baseline skin temperature | blunted the CGRP-induced hot flash response | blunted the CGRP-induced hot flash response | increased plasma estradiol in a dose-dependent manner | did not alter body weight | – | did not alter uterine weight | did not alter uterine weight | – | lower basal temperatures; also recorded: decreased basal skin temperature | lower CGRP responses | lower basal temperatures | lower CGRP responses | tripled | not different between dietary treatments | did not alter behavioral measures of mood | did not alter behavioral measures of mood |
